# The source made the active and inactive calls.
# Columns and labels:
# [1] = Luminescence-based cell-based high throughput dose response assay to identify activators of the DAF-12 from the parasite S. stercoralis (ssDAF-12).; assay type: functional
# [2] = target: T1, Oxysterols receptor LXR-beta (Homo sapiens, UniProt P55055); test: LXR agonists, Gal4 luciferase reporter, dose response, counter-screen for ssDAF-12 agonist project, cell-based, luminescence, HEK293, S. stercoralis campaign (AID 720737); assay type: functional; conditions: read-out: IC50 (the source's name)
# T1 sequence (P55055 whole entry): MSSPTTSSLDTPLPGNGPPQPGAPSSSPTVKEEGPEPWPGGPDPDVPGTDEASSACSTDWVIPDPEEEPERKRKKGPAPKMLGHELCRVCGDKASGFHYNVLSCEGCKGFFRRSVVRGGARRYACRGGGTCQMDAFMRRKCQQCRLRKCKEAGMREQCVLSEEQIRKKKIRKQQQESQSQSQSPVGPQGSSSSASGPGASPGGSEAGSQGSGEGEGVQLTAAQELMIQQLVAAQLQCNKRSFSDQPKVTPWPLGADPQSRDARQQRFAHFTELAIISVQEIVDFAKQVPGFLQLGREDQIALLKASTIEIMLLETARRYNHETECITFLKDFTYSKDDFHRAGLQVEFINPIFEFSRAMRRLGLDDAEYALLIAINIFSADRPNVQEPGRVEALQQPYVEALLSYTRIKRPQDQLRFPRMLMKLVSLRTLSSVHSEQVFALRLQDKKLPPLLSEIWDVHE
# [3] = ADAM10 protease inhibitors, dose response, selectivity assay for ADAM17 exosite inhibitor project, biochemical, FRET peptide substrate, recombinant human ADAM10 (AID 743259);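 note: ADAM10 enzyme cleaving a FRET peptide substrate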
# [4] = target: Disintegrin and metalloproteinase domain-containing protein 17 (Homo sapiens, UniProt P78536); test: exosite inhibitors of ADAM17, dose response, biochemical (AID 743260)
# [5] = P. falciparum Dd2 growth inhibitors, dose response, SYBR Green, cherry-picked samples (AID 1159567); assay type: functional, cell-based
# [6] = HepG2 cell cytotoxicity, dose response, cytotoxicity control, cherry-picked samples (AID 1159577); assay type: functional, cell-based
# [7] = A549 cell cytotoxicity, dose response, cytotoxicity control, plate reader, cherry-pick, antagonist series (AID 743412); assay type: functional, cell-based
# [8] = HepG2 cell cytotoxicity, dose response, cytotoxicity control, plate reader, cherry-pick, antagonist series (AID 743416); assay type: functional, cell-based
# [9] = LGR2 antagonists, dose response, cell-based, HEK293, CRE-luciferase reporter, cherry pick, set 2 (AID 743343); assay type: functional;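 note: transfected cells were stimulated with diluted bursicon conditioned medium after compound addition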
# [10] = MC4R antagonists, dose response, counter-screen for LGR2 antagonist project, cell-based, plate reader, cherry pick (AID 743444); assay type: functional;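 note: transfected HEK 293 cells stimulated with alpha-MSH peptide; potency of inhibitors of the alpha-MSH evoked signal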
# [11] = target: Large T antigen (Simian virus 40, UniProt P03070); assay type: functional, Betapolyomavirus macacae;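 note: Confirmatory-stage PubChem screen for compounds that inhibit SV40 T antigen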
# [12] = target: T2, Bifunctional protein GlmU (Mycobacterium tuberculosis, UniProt P9WMN3); test: Inhibitors of Mycobacterial Glucosamine-1-phosphate acetyl transferase (GlmU). Secondary screen.; design: species or system Mycobacterium tuberculosis H37Rv
# T2 sequence (P9WMN3 whole entry): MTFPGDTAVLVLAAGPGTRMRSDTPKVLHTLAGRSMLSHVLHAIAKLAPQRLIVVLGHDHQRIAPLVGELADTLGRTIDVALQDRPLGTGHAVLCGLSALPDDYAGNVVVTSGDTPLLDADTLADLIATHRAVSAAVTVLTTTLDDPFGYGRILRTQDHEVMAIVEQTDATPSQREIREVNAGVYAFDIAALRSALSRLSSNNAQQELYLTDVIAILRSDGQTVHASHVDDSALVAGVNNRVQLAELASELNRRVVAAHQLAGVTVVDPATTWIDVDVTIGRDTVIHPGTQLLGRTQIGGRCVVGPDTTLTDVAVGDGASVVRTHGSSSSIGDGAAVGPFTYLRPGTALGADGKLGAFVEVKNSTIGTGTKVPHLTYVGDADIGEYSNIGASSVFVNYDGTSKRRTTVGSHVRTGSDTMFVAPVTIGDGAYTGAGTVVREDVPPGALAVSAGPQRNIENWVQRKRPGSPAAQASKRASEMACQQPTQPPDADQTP
# [13] = target: Genome polyprotein (dengue virus type 2, UniProt P29990); test: Dengue-2 NS5 methyltransferase inhibitors, primary screen, biochemical, confirmation dose response (AID 588689); assay type: functional
# [14] = target: T3, Polyadenylate-binding protein 1 (Homo sapiens, UniProt P11940); test: PABP1 MLLE–PAM2 interaction inhibitors, dose response, miRNA deadenylation inhibitor project, biochemical, fluorescence polarization, Cy5-PAM2 peptide, secondary (AID 602260); assay type: functional; conditions: read-out: IC50_Mean
# [15] = target: T3, Polyadenylate-binding protein 1; test: PABP1 MLLE–PAM2 binding inhibitor potency, dose response, biochemical, fluorescence polarization, FITC-PAM2 peptide (AID 602259); assay type: functional; conditions: read-out: IC50_Mean
# [16] = test system: BJ; test: cytotoxicity toward BJ-TERT fibroblasts, dose response, cell-based, RAS-independent, luminescence (AID 1933); assay type: functional; conditions: Homo sapiens
# [17] = test system: BJ; test: cells; assay type: functional, cell-based; conditions: Homo sapiens
# [18] = test system: BJ; test: cytotoxicity toward BJ-TERT-LT-ST fibroblasts, dose response, cell-based, RAS-independent, luminescence (AID 1935); assay type: functional; conditions: Homo sapiens;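 note: BJ fibroblasts immortalized with TERT plus LT and ST oncogenes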
# [19] = cytotoxicity toward DRD oncogenic fibroblasts, dose response, cell-based, non-viral oncogenic, luminescence (AID 1934); assay type: functional; conditions: Homo sapiens
# [20] = target: Paired box protein Pax-8 (Homo sapiens, UniProt Q06710); test: inhibitors of PAX8-driven TPO luciferase reporter, dose response, RMG-I cells, cherry-pick (AID 687027); assay type: functional, cell-based;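 note: luciferase reporter driven by Pax8 target thyroperoxidase promoter measured by SteadyGlo luminescence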
# [21] = non-specific cell cytotoxicity, dose response, cytotoxicity control for PAX8 inhibitor project, plate reader, dry powder samples (AID 743021); assay type: functional, cell-based
# [22] = NIH:OVCAR-3 ovarian cancer cell cytotoxicity, dose response, PAX8 inhibitor project, plate reader, dry powder samples (AID 743044); assay type: functional, cell-based
# T3 sequence (P11940 whole entry): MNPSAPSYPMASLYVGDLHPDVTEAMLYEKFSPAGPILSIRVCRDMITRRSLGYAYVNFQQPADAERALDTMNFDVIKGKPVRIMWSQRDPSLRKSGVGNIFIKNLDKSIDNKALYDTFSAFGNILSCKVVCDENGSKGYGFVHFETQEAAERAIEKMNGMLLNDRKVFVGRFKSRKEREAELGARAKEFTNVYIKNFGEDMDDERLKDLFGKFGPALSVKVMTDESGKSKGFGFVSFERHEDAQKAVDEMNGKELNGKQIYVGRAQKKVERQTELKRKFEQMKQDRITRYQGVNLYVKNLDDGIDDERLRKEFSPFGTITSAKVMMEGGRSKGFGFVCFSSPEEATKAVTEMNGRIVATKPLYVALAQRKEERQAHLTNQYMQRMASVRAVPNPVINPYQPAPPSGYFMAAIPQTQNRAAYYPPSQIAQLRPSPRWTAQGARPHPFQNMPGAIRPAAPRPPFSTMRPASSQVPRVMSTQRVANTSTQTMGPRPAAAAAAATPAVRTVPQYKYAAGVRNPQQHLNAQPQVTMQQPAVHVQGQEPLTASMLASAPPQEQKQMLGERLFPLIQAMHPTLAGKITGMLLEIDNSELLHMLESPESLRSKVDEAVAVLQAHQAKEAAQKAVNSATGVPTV
# Chain of Paired box protein Pax-8 (Q06710 whole entry): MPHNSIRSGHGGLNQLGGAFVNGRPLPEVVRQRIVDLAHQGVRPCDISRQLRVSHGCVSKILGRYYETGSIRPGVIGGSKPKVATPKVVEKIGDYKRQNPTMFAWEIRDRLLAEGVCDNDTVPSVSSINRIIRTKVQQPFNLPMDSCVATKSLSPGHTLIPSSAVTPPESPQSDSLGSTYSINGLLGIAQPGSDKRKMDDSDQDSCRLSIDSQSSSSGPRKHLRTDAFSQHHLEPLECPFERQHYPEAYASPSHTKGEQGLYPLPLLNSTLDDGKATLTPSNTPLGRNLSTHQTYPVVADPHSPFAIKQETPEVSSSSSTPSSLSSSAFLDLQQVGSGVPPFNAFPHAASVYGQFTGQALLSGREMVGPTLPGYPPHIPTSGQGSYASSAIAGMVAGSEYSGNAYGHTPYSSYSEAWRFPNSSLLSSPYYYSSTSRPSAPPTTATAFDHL
# Chain of Disintegrin and metalloproteinase domain-containing protein 17 (P78536 whole entry, the tested form may be a part): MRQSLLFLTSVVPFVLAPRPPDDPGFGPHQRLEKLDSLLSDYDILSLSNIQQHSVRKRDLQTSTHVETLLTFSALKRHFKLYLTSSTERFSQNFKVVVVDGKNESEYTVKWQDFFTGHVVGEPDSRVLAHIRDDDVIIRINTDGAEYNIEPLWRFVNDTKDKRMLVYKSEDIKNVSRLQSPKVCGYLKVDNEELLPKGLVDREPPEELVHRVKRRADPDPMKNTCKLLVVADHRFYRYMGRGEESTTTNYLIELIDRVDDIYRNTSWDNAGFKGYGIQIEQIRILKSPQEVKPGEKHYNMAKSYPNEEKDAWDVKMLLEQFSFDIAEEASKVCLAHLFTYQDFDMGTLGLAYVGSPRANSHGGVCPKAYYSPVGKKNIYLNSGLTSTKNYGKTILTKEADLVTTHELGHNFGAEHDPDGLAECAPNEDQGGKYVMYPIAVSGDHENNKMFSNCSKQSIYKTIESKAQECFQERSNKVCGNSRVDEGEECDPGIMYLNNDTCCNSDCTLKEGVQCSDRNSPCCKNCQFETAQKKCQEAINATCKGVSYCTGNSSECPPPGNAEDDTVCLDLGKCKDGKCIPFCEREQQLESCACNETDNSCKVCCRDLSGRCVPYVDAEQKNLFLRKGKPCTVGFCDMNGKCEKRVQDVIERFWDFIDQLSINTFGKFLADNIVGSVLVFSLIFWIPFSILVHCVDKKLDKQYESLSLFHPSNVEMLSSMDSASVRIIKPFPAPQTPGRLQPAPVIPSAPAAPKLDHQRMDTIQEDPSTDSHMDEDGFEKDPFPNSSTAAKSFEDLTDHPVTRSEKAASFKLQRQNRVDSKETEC
# Chain of Large T antigen (P03070 whole entry): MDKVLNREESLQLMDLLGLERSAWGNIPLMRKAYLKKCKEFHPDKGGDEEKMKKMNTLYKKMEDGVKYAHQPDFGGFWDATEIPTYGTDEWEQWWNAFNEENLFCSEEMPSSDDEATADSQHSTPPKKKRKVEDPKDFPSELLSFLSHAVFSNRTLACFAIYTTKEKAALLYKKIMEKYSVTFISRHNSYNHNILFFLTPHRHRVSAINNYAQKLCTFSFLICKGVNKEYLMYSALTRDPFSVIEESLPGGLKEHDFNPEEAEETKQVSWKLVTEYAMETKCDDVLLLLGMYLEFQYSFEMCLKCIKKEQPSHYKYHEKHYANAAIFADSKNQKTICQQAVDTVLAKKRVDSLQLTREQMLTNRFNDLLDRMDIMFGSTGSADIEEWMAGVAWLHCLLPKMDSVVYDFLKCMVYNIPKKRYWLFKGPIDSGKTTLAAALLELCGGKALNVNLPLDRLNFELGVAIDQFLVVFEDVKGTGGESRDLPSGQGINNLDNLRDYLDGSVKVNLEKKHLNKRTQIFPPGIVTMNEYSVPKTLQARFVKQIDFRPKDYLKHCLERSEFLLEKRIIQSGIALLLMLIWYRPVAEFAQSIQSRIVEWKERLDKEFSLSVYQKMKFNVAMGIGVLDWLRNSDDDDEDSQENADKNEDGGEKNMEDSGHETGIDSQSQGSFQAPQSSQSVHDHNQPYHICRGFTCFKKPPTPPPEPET
# Chain of Genome polyprotein (P29990 2492-3391 limits assumed): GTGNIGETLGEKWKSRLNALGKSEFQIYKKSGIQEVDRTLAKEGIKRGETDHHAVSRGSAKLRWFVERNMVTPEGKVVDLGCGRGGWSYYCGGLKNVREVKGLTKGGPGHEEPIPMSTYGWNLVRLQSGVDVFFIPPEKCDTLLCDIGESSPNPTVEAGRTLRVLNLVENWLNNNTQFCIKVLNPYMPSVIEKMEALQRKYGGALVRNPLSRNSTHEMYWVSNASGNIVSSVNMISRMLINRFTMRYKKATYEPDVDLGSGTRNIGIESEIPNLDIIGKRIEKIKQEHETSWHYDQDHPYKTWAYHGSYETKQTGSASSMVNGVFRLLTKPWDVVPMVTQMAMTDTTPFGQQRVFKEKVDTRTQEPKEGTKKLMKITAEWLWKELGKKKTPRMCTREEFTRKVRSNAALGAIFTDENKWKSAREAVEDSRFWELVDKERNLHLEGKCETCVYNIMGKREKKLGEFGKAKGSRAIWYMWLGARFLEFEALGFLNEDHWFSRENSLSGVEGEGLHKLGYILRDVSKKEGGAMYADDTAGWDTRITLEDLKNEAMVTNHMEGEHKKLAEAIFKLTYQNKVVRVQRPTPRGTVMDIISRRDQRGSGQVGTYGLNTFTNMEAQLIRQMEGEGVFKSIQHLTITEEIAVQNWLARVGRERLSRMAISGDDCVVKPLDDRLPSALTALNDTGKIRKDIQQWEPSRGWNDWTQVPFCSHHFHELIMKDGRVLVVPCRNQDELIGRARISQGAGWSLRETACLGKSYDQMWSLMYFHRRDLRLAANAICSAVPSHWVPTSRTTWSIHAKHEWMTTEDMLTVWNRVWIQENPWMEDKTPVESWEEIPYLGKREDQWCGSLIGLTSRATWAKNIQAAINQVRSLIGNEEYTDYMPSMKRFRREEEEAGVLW
structure (smiles),measurement,setting,value
CN(/N=C/c1cccnc1)c1cnc2ccccc2n1,IC50,[1],> 67.5 µM (inactive)
same,EC50,[2],> 67.5 µM (inactive)
Sc1n[nH]c(-c2sccc2OCc2ccc(Cl)cc2Cl)n1,IC50,[3],> 69.5 µM (inactive)
CCCn1c(CCNc2nc(-c3cccc(Br)c3)cs2)nc2ccccc21,IC50,[4],> 69.6 µM (inactive)
same,IC50,[3],> 69.6 µM (inactive)
OC[C@@H]1[C@H](c2ccc(-c3ccc(F)cc3)cc2)[C@H](CNC2CCCC2)N1CCC(F)(F)F,AC50,[5],2.51 µM (active)
same,AC50,[6],16.5 µM (active)
O=C(O)c1cccc(-c2nc3ccccc3[nH]2)c1,AC50,[7],> 52 µM (inactive)
same,AC50,[8],> 52 µM (inactive)
same,AC50,[9],1.54 µM (active)
same,AC50,[10],1.5 µM (active)
Cc1onc(-c2ccccc2)c1C(=O)OCC(=O)c1ccc(F)cc1,IC50,[1],> 67.5 µM (inactive)
same,EC50,[2],> 67.5 µM (inactive)
O=C(O)c1ccc(Nc2cc(Cl)c3nonc3c2[N+](=O)[O-])cc1,IC50,[11],76.6 µM (active)
same,IC50,[12],92 µM (active)
same,IC50,[13],12 µM (active)
same,IC50,[14],> 66 µM (inactive)
same,IC50,[15],> 66 µM (inactive)
O=C(NC1CCCCC1)C(c1cccnc1)N(C(=O)CCl)c1ccccc1Cl (stereo unspecified),EC50,[16],3.94 µM (inconclusive)
same,EC50,[17],> 150 µM (not active)
same,EC50,[18],> 150 µM (not active)
same,EC50,[19],37.3 µM (active)
same,AC50,[20],6.05 µM (active)
same,AC50,[21],11.2 µM (active)
COCC(=O)N1CCCCN2[C@H](C1)[C@@H](c1ccc(-c3ccc(C)cc3)cc1)[C@@H]2CO,AC50,[20],58.9 µM (active)
same,AC50,[22],56.3 µM (active)
